Converted amounts (≈) assume the structure as drawn.

Assay [1] relates to passive Heymann nephritis of rat. As to the kind of experiment: Inhibitory effect against increase of urinary proteins in the passive Heymann nephritis of rat. It counts as in vivo, SD-strain male rats. The note with it: oral, once a day for 7 days, urinary protein, 12th day. The protocol:
Inhibitory effect against increase of urinary proteins in the passive Heymann nephritis of rat
SD-strain male rats (7 week old, body weight: 200-230 g)were used as test animals.
An antiserum which will induce passive Heymann nephritis of rat was prepared by procedures according to the method of T. S. Edington, et al. [T. S. Edington, R. J. Glassock and F. J. Dixon: Autologous immune complex nephritis induced with renal tublar antigen. I. Identification and isolation of the pathogenetic antigen. Journal of Experimental Medicine Vol. 127, pp. 555-572 (1968).] as follows:
At the first, an antigen (FX1A fraction) of the renaltublar brush border was sampled from the SD rat. Next, the antigen was admixed with Freund' complete adjuvant, then a New Zealand White rabbit was sensitized therewith. The sensitization procedures were conducted 3 times in every 2 weeks, and 2 weeks after the final sensitization, the blood sample was obtained from the rabbit. […]
Heymann nephritis of the rats were induced by injecting the above-mentionedantiserum to the tail vein of the test rats. […] The urine samples of the rat were taken in time sequentially from the 10th day after the injection, and the amount of urinary protein in the samples were determined. The rate of inhibitory effect (%) against the production of urinary protein performed by the test compound was calculated by the formula as follows: […]

The subject of assay [2] is superoxide radicals (O2^-) released from the peritoneal macrophage cells of guinea pig. As to the kind of experiment: Inhibitory effect against superoxide radicals (O2^-) released from the peritoneal macrophage cells of guinea pig by stimulation (FMLP). It counts as cell-based. As to conditions: Cavia porcellus, Peritoneal macrophage cell; guinea pig peritoneal macrophages 2×10^6 cells/ml; FMLP 10^-7 M; cytochrome C reduction, OD550. The protocol: Inhibitory effect against superoxide radicals (O2^-) released from the peritoneal macrophage cells of guinea pig by stimulation:
Mineral oil (15 ml)was intraperitoneally administered to a guinea pig, then 96 hours after the administration, the peritoneal macrophage cells were sampled.
Superoxide radicals (O2^-) were determined by means of reduction of cytochrome C method according to the procedure described in an article written by T. Matsumoto, K. Takeshige and S. Minakami: Biochemical and Biophysical Research Communications, Vol. 88, No. 3, pp. 974-979, (1979).
Into 1 ml of 80 μM-cytochrome C solution, the peritoneal macrophage cells were added to make the final concentration of 2×10^6 cells/ml, then each one of the test compounds of the present invention was added thereto to make the test group sample. On the other hand, water was added in place of the test compound of the present invention to make the control group sample. Each of the test group samples and the control group samples were subjected to pre-incubation at 37° C. for 1 minute.
As to the stimulating agent for releasing superoxide radicals (O2^-), FMLP (formylmethionyl leucyl phenylalanine)was added to each one of the test sample solutions and the control group samples to make the final concentration of FMLP to 10^-7 M, then the sample solutions were subjected to additional reaction by incubation for 1 minute.
Difference between the optical absorbances measured at 550 nm (OD550) of both test group samples and control group samples were determined, the 50% inhibitory concentration (IC50) was obtained by calculating as the ratio of OD550 of the test group sample to that of the control group sample.

The subject of assay [3] is rat mesangial cell proliferation. As to the kind of experiment: Inhibitory effects on rat mesangial cell proliferation (interleukin-1β induced 3H-thymidine incorporation). In kind it is cell-based, SD-strain rat. As to conditions: 1 ng/ml interleukin-1β, read-out: Rate of inhibition; for inhibition at 3 µg/mL: concentration 3 μg/ml; for inhibition at 10 µg/mL: concentration 10 μg/ml. The protocol:
Inhibitory effects on rat mesangial cell proliferation
The kidney of SD-strain rat was aseptically taken out by excision. and the renal cortex was cut out therefrom. The renal glomeruli were isolated by use of sieve. The glomeruli were cultivated in RPMI1640 culture medium [which contains 10% of FBS (fetal bovine serum)] for 4 weeks. Thus obtained cells were used as mesangial cells.
An experiment of incorporation of thymidine by interleukin-1β was conducted by procedures according to the method of Ganz [Michael B. Ganz; Mary C. Perfetto and Walter F. Boron: American Journal of Physiology, Vol. 259, F269-F278, (1990)]. Thus, 2×10^4 cells/ml of mesangial cells were scattered on a 48-well plate (0.5 ml/well), and the cells were cultivated in RPMI culture medium (which contains 10% of FBS) for 3 days. Then, the culture medium was changed to another RPMI culture medium in which the concentration of FBS was decreased from 10% to 0.5% and cultivated for 3 days. Next, the RPMI culture medium (containing 0.5% of FBS) was changed to other RPMI culture medium to which the test compound and 1 ng/ml of interleukin-1β were added. The cultivation was conducted for 24 hours, then 1 μCi/well of 3H-thymidine was added to the culture medium, and the cultivation was continued for additional 24 hours.
The amount of ^3 H-thymidine being incorporated into the mesangial cells was measured by use of a scintillation counter, and the rate of inhibition (%) in comparison of the test group vs. control group was calculated by the following formula:
Rate of inhibition (%)=[(C-D)/(C-E)]×100
C: the incorporated amount of ^3 H-thymidine in control group;
D: the incorporated amount of ^3 H-thymidine in the case of that test compound was added;
E: the incorporated amount of ^3 H-thymidine in the case of that interleukin-1β was not added.

Assay [4] concerns releasing of hydrogen peroxide (H2 O2) from the neutrocyte of abdominal cavity of rat. As to the kind of experiment: Inhibitory effect against the releasing of hydrogen peroxide (H2O2) from the neutrocyte of abdominal cavity of rat. In kind it is cell-based, SD-strain rat. The note with it: rat neutrocytes 10^6 cells/ml; FMLP 2×10^-6 M; 37° C., 1 hour; OD610. The protocol:
Inhibitory effect against the releasing of hydrogen peroxide (H2 O2) from the neutrocyte of abdominal cavity of rat
1%-Casein solution was administered to the abdominal cavity of a SD-strain rat, then 16 hours after the administration, the neutrocytes were obtained by washing the abdominal cavity. Thus obtained neutrocytes were washed with Hank's solution.
In to a reaction mixture consisting of the following ingredients:
______________________________________
HRP (Horse Radish peroxide)
HEPES [N-(2-Hydroxyethyl)pipera-
zine N'-2-ethanesulfonic acid]
Rat neutrocytes 10^6 cells/ml
the test compound was added, then the whole mixture was incubated at 37° C. for 1 hour, and the mixture was subjected to a centrifugal separation at 2,000 rpm for minutes. After the centrifugal separation, 1 ml of the supernatant was sampled and 10 μl of 1N-NaOH aqueous solution was added thereto. Then, the optical absorbance at 610 nm (OD610) of the supernatant was determined by means of using a spectro-photometer.
The IC50 (50% inhibitory concentration) of the test compound was obtained by calculating as the ratio of OD610 of the test group sample to that of the control group sample.

For `CC(C)C[C@@H]1C(=O)N[C@H](Cc2cc(C(C)(C)C)c(O)c(C(C)(C)C)c2)C(=O)N1O` (racemic) [Example 13, (3RS,6RS)-3-(3,5-di-tert-butyl-4-hydroxybenzyl)-1-hydroxy-6-isobutylpiperazine-2,5-dione], the “Rate of inhibitory effect” value in assay [1] (20 mg/kg/day) came out at 57.8 ± 6.1%. Further, the IC50 in assay [2] was found to be 1.3 mg/L (≈ 3.21 µM). Also, in assay [3], the inhibition at 3 µg/mL stood at 77.9 ± 8.3% and the inhibition at 10 µg/mL was 122 ± 6.1%. In addition, the IC50 in assay [4] is less than 5 mg/L.

As for `CCOC(=O)C[C@@H]1NC(=O)[C@@H](Cc2c[nH]c3ccccc23)N(O)C1=O` [Example 57], the “Rate of inhibitory effect” value in assay [1] (5 mg/kg/day) was 53.1 ± 15.1%. Also, in assay [3], the inhibition at 3 µg/mL was determined as 26.3 ± 5.8% and the inhibition at 10 µg/mL is 56.7 ± 2.9%. Besides, in assay [4], the midpoint of inhibition, the IC50, lay at 3 mg/L (≈ 8.69 µM).

The values are drawn from patent US5607934A, “Piperazine derivatives and salts thereof” (Otsuka Pharmaceutical Co., Ltd., priority 1993, dated 1997).
